The series in a line: Ex vitro study: fluorescence intensity over time in 1×PBS at 37° C. The following applies: 1×PBS buffer pH 7.4 and 5.4, 37° C. It is filed as physicochemical. How it is done:
Ex vitro study: In order to observe the stability of PLGA microparticles in blood ex vitro study was done by the presence of fluorescence intensity after treating the Cy5@ZIF-8@PLGA particles in 1×PBS buffer. The experiment was performed at two different pH conditions. One was pH 7.4 which is the normal blood pH and another was pH 5.4 which mimic the extreme pH condition of blood in different disease states. The fluorescence intensity was measured at different time intervals. For that four types of samples were prepared every time. In two Eppendorf tubes PBS buffer of pH 7.4 and 5.4 were taken and fluorescence intensity was measured and found no peaks. PLGA microparticles were dissolved in 1×PBS buffer pH 7.4 and pH 5.4 with 10 mins centrifugation in Beckman ultra-small centrifuge machine at 3225×g. Only the dissolved clear supernatant was taken and kept in a hot room (37° C.). In another two Eppendorf tubes, Cy5 dye was dissolved in 1×PBS buffer pH 7.4 and 5.4 and kept under the same conditions as the PLGA microparticles to validate the change of fluorescence intensity of Cy5 dye at 37° C. (FIGS. 8A-8D).
It is believed that the PLGA microparticles further preserve the Cy5 dye and act as a sustained release protective shell which can enhance the release period of model drug Cy5 at blood pH.

Molecules are shown by their SMILES.

Turning to `C[N+]1=C(C=CC=CC=C2N(CCCCCC(=O)O)c3ccc(S(=O)(=O)O)cc3C2(C)C)C(C)(C)c2cc(S(=O)(=O)[O-])ccc21` [Cy5 dye, 3H-Indolium, 2-[5-[1-(5-Carboxypentyl)-1,3-dihydro-3,3-dimethyl-5-sulfo-2H-indol-ylidene]-1,3-pentadien-1-yl]-1-methyl-3,3-dimethyl-5-sulfonate], the “change of fluorescence intensity over time” value is listed as “did not show any regular change of fluorescence intensity over time”.

These data come from patent US20230001396A1, “COMPOSITIONS AND METHODS FOR CONTROLLED DELIVERY AND PROTECTION OF THERAPEUTIC AGENTS” (Board of Regents, The University of Texas System, priority 2019, published 2023).
